Experimental data from patent US20080090814A1, “PYRIDAZINONE COMPOUNDS” (Anadys Pharmaceuticals, Inc., priority 2006, published 2008).

Molecular target: HCV NS5B polymerase (Hepatitis C virus genotype 1a, UniProt P27958)
Test: HCV polymerase inhibition assay (FlashPlate, [α-33P]GTP incorporation)
Format: biochemical
Settings: 20 nM enzyme, 0.6 μM GTP, 250 nM 5′biotinylated oligo (rG13)/poly rC, 75 min at 28° C.
Procedure: Compounds were tested for HCV polymerase inhibition. Assays were performed in a 96-well streptavidin-coated FlashPlate using 20 nM enzyme, 0.5 μCi of [α-^33P]GTP, 0.6 μM GTP, and 250 nM 5′biotinylated oligo (rG13)/poly rC in 20 mM Tris-HCl, pH 7.5, 5 mM MgCl2, 5 mM dithiothreitol, 0.1 g/L bovine serum albumin, and 100 U/mL RNAse inhibitor. The reaction was stopped by aspiration after 75 min at 28° C. and the plate was washed several times. After washing and drying the plate, incorporated radioactivity was counted using a Microbeta scintillation counter. IC50 values were calculated relative to the uninhibited control and inhibition data were fitted to a 4-parameter IC50 equation. For very potent inhibitors, the data were fitted to a tight binding quadratic equation to obtain IC50 values.

HCV NS5B polymerase, sequence (P27958 2421-3011): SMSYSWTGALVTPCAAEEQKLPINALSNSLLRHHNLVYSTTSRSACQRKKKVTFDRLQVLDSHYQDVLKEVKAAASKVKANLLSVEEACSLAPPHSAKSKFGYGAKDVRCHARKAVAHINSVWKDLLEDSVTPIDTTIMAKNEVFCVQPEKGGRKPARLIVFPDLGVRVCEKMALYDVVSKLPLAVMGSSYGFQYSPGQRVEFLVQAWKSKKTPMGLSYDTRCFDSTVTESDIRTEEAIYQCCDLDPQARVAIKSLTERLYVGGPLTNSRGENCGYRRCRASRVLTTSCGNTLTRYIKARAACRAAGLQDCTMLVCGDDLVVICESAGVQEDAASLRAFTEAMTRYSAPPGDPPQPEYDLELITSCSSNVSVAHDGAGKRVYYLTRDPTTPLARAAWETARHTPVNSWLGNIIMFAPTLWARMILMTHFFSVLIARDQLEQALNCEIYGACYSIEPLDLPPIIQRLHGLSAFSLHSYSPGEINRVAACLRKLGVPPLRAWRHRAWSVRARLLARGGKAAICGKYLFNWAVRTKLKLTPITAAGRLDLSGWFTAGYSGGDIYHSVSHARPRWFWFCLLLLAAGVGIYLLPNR

## CC(C)CCn1nc(-c2cccs2)c(O)c(C2=CS(=O)(=O)c3cc(NS(C)(=O)=O)ccc3N2)c1=O [Compound 29, N-{3-[5-Hydroxy-2-(3-methyl-butyl)-3-oxo-6-thiophen-2-yl-2,3-dihydro-pyridazin-4-yl]-1,1-dioxo-1,4-dihydro-1λ^6-benzo[1,4]thiazin-7-yl}-methanesulfonamide]
  IC50: < 1 µM

## CCCCc1nn(CCC(C)C)c(=O)c(C2=CS(=O)(=O)c3ccccc3N2)c1O [Compound 25, 6-Butyl-4-(1,1-dioxo-1,4-dihydro-1λ^6-benzo[1,4]thiazin-3-yl)-5-hydroxy-2-(3-methyl-butyl)-2H-pyridazin-3-one]
  IC50: > 1 µM

## CC(C)CCn1nc(-c2cccs2)c(O)c(C2=CS(=O)(=O)c3ccccc3N2)c1=O [Compound 16, 4-(1,1-Dioxo-1,4-dihydro-1λ^6-benzo[1,4]thiazin-3-yl)-5-hydroxy-2-(3-methyl-butyl)-6-thiophen-2-yl-2H-pyridazin-3-one]
  IC50: > 1 µM
